# Patent US20030186946A1, “Suppression of cytotoxic protein conformers” (priority 2002, published 2003)
# Where two headings read alike, the source gives them in different places.
# Columns and labels:
# [1] = target: T1, human amylin (Homo sapiens, UniProt P10997); assay: Circular dichroism assay of amylin conformation; type: biochemical; design: Amylin is a 37-residue; C-terminally amidated peptide having a disulfide bridge between the cysteines at residues 2 and 7; purchased Bachem Calif; (Torrance, Calif.); host or cells: chemical synthesis; conditions: 200 μM Amaranth, approximately 4 μM human amylin, 4% HFIP (FIG. 9F)
# T1 sequence (P10997 34-70 limits assumed): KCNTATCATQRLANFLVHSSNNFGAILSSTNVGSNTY
# Description: Preparation of monomeric human amylin. Human amylin (batch 0551805) was obtained from Bachem (Torrence, Calif.). Stock solutions of amylin were prepared as described by Padrick and Miranker, 2002. Human amylin was solubilised in 6M guanidine HCL/50 mM potassium phosphate, pH 6.0, and loaded onto a C18 reversed-phase spin column (Harvard Biosciences). The column was then washed sequentially with 10% Acetonitrile, 0.2% trifluoroacetic acid and water. Monomeric amylin was eluted in 100% HFIP (hexafluoroisopropanol). This stock solution of amylin was then used for all Circular Dichroism experiments.
# Circular Dichroism Assay. Circular dichroism spectra were measured on a Pi-Star 180 spectrometer (Applied Photophysics, Leatherhead, UK). Measurements were carried out in either 100% HFIP or 100 mM potassium chloride/50 mM potassium phosphate buffer (pH 7.4) and 2.5% HFIP at 25° C. A stock solution of monomeric human amylin was diluted into buffer to a final concentration of 2.5% HFIP and approximately 5 μM amylin to initiate amylin fibril formation. Spectra were collected at 1 nm intervals with a sample period of 25 μs and adaptive sampling of ±0.01 mdeg. Measurements were recorded immediately following addition of the human amylin stock solution to phosphate buffer in the presence or absence of Congo red or amaranth.
# Human amylin (100 μg) was purified on a C18 spin column to give a stock solution in 100% HFIP as described in the methods. A spectrum of this stock solution was collected at 1 nm intervals in a 0.1 cm path length quartz cell (FIG. 9B). The stock solution of monomeric amylin in 100% HFIP was diluted to 2.5% HFIP in 100 mM potassium chloride/50 mM potassium phosphate buffer (pH 7.4). Human amylin concentration was approximately 5 μM. A spectrum was collected at 1 nm intervals in a 0.5 cm path length quartz cell in the absence (FIG. 9C) or presence of 20-fold molar excess of Congo red over human amylin (FIG. 9D). The stock solution of monomeric amylin in 100% HFIP was diluted to 4% HFIP in 100 mM potassium chloride/50 mM potassium phosphate buffer (pH 7.4) containing decreasing concentrations of Congo red as indicated in the Figure. Human amylin concentration was approximately 4 μM. Spectra were collected at 1 nm intervals in a 0.1 cm path length quartz cell (FIG. 9E). The stock solution of monomeric amylin in 100% HFIP was diluted to 4% HFIP in 100 mM potassium chloride/50 mM potassium phosphate buffer (pH 7.4) containing 200 μM Amaranth. Human amylin concentration was approximately 4 μM. Spectra were collected at 1 nm intervals in a 0.1 cm path length quartz cell (FIG. 9F).
# [2] = target: T1, human amylin; conditions: 10 μM thioflavin-T
# Description: Thioflavin-T binding fluorescent assays. The effects of various polycyclic compounds on islet amyloid formation were measured by fluorescence spectroscopy, using a SpectraMAX Gemini XS Fluorescence Spectrophotometer (Molecular Devices Corporation, Sunnyvale, Calif.). Excitation and emission maxima were set to 450 nm and 510 nm respectively using a cutoff filter at 495 nm. Thioflavin-T binds to amylin fibrils, but not to monomeric amylin (Goldsbury et al., (1999), J. Mol. Biol., 285:33-39). […] The rate of amylin fibril formation was determined by following thioflavin-T fluorescence in the presence or absence of the potential inhibitory drug. […] Background fluorescence by acridine and acridine orange in the absence of amylin was subtracted from the experimental results. The control preparation contained human amylin and thioflavin-T in the absence of drug. The rate of fluorescence enhancement under these conditions was used to compare amylin fibril formation in the absence and presence of the drug. All other experimental conditions were identical.
# Tri-prolyl amylin and rat amylin with thioflavin-T were also used as additional controls.
# Each data point represents the mean±s.e.m of three separate reactions.
# Effect of chlorpromazine on enhancement of thioflavin-Tfluorescence by human amylin (FIG. 2). Chlorpromazine (700 μM) (π) was incubated in 10 mM tris p H 7.4, with monomeric human amylin (70 μM) in the presence of thioflavin-T (10 μM). The fluorescence of the reaction was monitored over 24 hours as described in the methods. […] Each data point represents the mean±s.e.m of three separate reactions.
# Effect of selected polycylic compounds on enhancement of thioflavin-Tfluorescence by human amylin (FIG. 3). Acridine, acridine orange, neutral red and methylene blue are selected examples of fused tricyclic ring compounds. […] Compound structures are shown adjacent to the appropriate graph. […] Fluorescence was monitored over 24 h as described in the Methods. A preparation containing human amylin and thioflavin-T only (▪), was included as a comparison in the absence of drug. […] Each data point represents the mean±s.e.m of three independent experiments.
# [3] = target: T1, human amylin; assay: Radiolabelled precipitation assay of amylin fibril formation; type: biochemical; design: Amylin is a 37-residue; C-terminally amidated peptide having a disulfide bridge between the cysteines at residues 2 and 7; purchased Bachem Calif; (Torrance, Calif.); host or cells: chemical synthesis; conditions: for effect on precipitable amyloid formation: 200 μM compound, 10 μM human amylin, 16,000×g (FIG. 8)
# Description: Radiolabelled Precipitation Assays. The precipitation of radiolabelled human and rat amylin fibrils was used as an independent method to monitor assembly of amylin fibrils in the presence or absence of potential inhibitors of amylin fibril formation. […] Incubation mixtures were then centrifuged at either 16,000×g or 100,000×g, for 20 min, and the amount of [^3H]-human amylin remaining in the supernatant after centrifugation was determined (Beckman LSW 3801 β-counter, USA). Results were expressed as percentages of precipitable counts per minute, relative to total radioactivity in the supernatant.
# Incorporation of [^3H]-amylin into amylin fibrils was followed for 24 hours. Human amylin fibrils were precipitated by centrifugation at either 16,000×g (FIG. 7A) or at 100,000×g (FIG. 7B). Rat amylin (10 μM) in the presence of [^3H]-rat amylin was used as a non-fibril forming control (♦) (FIG. 7A). The results are shown as the percentage of precipitable radioactive amylin, relative to total radioactivity in the supernatant at each time point. Each data point represents the mean±s.e.m of three separate reactions.
# The incorporation of radioactive monomeric amylin into the human amylin fibrils as they form, can be used to measure the rate at which amylin fibrils form in the presence or absence of a potential inhibitory drug. Amylin fibrils can be separated from solution by centrifugation and the amount of radioactive amylin precipitated in the amylin fibril pellet is then used as a measure of the amount of amylin fibrils present at that time.
# Thioflavin-T, although not polycyclic, is widely used in fluorescent assays to measure amylin fibril formation. Incorporation of radioactivity into the pellet of an aliquot of the reaction mixture centrifuged at 16,000×g, for 20 minutes was monitored over the time periods indicated. Rat amylin (10 μM) with [^3H]-rat amylin added was used as a non fibril forming control (∘) in each experiment. The results are shown as the percentage of precipitable radioactive amyloid, relative to total radioactivity in the supernatant at each time point. Each data point represents the mean±s.e.m of three separate experiments.
# [4] = target: T1, human amylin; assay: Electron microscopy of human amylin fibrils; type: biochemical; design: Amylin is a 37-residue; C-terminally amidated peptide having a disulfide bridge between the cysteines at residues 2 and 7; purchased Bachem Calif; (Torrance, Calif.); host or cells: chemical synthesis
# Description: Electron Microscopy. […] Samples were removed at various time points and prepared for electron microscopy. Aliquots (8 μl) of the amylin fibril preparations were absorbed to glow-discharged carbon-coated collodion film on 200-mesh copper grids for 1 min. Grids were blotted, washed twice in droplets of deionised water and stained with 2% (w/v) uranyl acetate. Grids were examined in a Phillips Technai transmission electron microscope operated at 120 kV.
# Samples were removed at various time points and prepared for electron microscopy according to the procedure described in the methods.
# Electron Microscopy of human amylin fibrils in the presence and absence of quinacrine (FIG. 5). A 100 fold molar excess of quinacrine was incubated with human amylin. Samples were removed at various time points and prepared for electron microscopy according to the procedure described in the methods.
# Electron Microscopy of human amylin fibrils in the presence and absence of selected polycyclic compounds (FIG. 6). […] Samples were removed and prepared for electron microscopy as described in the Methods. All experiments were performed in triplicate and the pictures above are representative of at least 6 photographs taken at each magnification.
# [5] = test system: RINm5F cells; assay: Cytotoxicity assay in RINm5F cells (calcein-AM / ethidium homodimer-1 staining); conditions: for cytotoxicity of amylin peptide to RINm5F cells: 30 μM peptide, 22 h, compared to vehicle control
# Description: Cell Culture and Cytotoxicity Assays. RINm5F cells were cultured in RPMI 1640 medium containing 10% fetal bovine serum, 290 μg/mL L-glutamine, 100 IU/mL penicillin and 100 μg/mL streptomycin. Cells were plated at a density of 15×1 cells per well, incubated for 48 h, rinsed with PBS and placed in fresh medium containing Congo red. Freshly prepared human amylin in Milli-Q water, was preincubated with Congo red for 30 min, then added to the cell culture medium to give a final concentration of 30 μM. Cells were treated for 22 h with human amylin in the presence or absence of 100 μM Congo red. Cell viability was determined by double-staining with calcein-AM and ethidium homodimer-1. Green fluorescence of live cells and red fluorescence marking nuclei of dead cells were simultaneously visualized using a Zeiss Axiovert S100 microscope equipped with a Zeiss filter set # 09. Photographs were taken at 400× magnification using a Zeiss AxioCam digital camera.
# A. Representative fluorescence micrograph of RINm5F cells treated with 30 μM human amylin for 22 h and stained with calcein-AM and ethidium homodimer-1 to show live cells (green) and dead cells (red). […] B. A representative micrograph of RINm5F cells treated with 30 μM human amylin and 100 μM Congo red stained as above. […] The percentage of live cells was determined for cells treated for 22 h with vehicle; 30 μM human amylin; 30 μM human amylin in the presence of 100 μM Congo red; or 30 μM rat amylin. Experiments were repeated independently 10 times except for human amylin plus Congo red (A+CR) which was repeated five times. Error bars represent the s.e.m of live and dead cell counts over 6-12 fields per condition.
# [6] = 1200 μM compound (20-fold molar excess), 60 μM human amylin, over 24 h (FIG. 3)
# [7] = 1200 μM compound, 60 μM human amylin, 10 mM tris pH 7.4, 24 h (FIG. 6)
compound,measurement,setting,value
O=S(=O)([O-])c1ccc2c(N=Nc3ccc(S(=O)(=O)[O-])c4ccccc34)c(O)c(S(=O)(=O)[O-])cc2c1.[Na+].[Na+].[Na+] [Amaranth],effect on β-conformer formation of human amylin (circular dichroism),[1],prevents formation of β-conformers and instead arrests the amylin peptide in an α-helical conformation
c1ccc2nc3ccccc3cc2c1 [acridine],enhancement of thioflavin-T fluorescence by human amylin,[2]; [6],moderate reduction in thioflavin-T enhanced fluorescence
same,effect on precipitable amyloid formation,[3],no effects on amyloid formation
CN(C)CCCN1c2ccccc2Sc2ccc(Cl)cc21 [chlorpromazine],morphology of human amylin fibrils (electron microscopy),[4]; [7],still formed characteristic amylin fibrils
same,inhibition of amylin fibril formation,"[2]; 700 μM chlorpromazine, 70 μM human amylin, over 24 hours (FIG. 2)",approximately 60%
same,enhancement of thioflavin-T fluorescence by human amylin,[2]; [6],little inhibition of amylin fibril associated thioflavin-T fluorescence enhancement
same,effect on precipitable amyloid formation,[3],no effects on amyloid formation
CN(C)c1ccc2nc3ccc(N(C)C)cc3[s+]c2c1 [methylene blue],enhancement of thioflavin-T fluorescence by human amylin,[2]; [6],no increase in thioflavin-T enhanced fluorescence
same,enhancement of thioflavin-T fluorescence by human amylin,"[2]; 1200 μM compound (20-fold molar excess), 60 μM human amylin, over 24 h (FIG. 3), listed as Methylene blue",complete inhibition
same,effect on precipitable amyloid formation,[3],no effects on amyloid formation
same,effect on precipitable amyloid formation,[3]; listed as Methylene blue,no effect
CCN(CC)CCCC(C)Nc1c2ccc(Cl)cc2nc2ccc(OC)cc12 (stereo not drawn) [quinacrine],rate of human amylin fibril formation (electron microscopy),"[4]; 7000 μM quinacrine, 70 μM human amylin, 1.5, 5 and 26 hours",appears to slow the rate of human amylin fibril formation
same,morphology of human amylin fibrils (electron microscopy),"[4]; 7000 μM quinacrine, 70 μM human amylin, 5 hours and 26 hours",large aggregates with few defined fibrils
CN(C)[C@@H]1C(=O)C(C(N)=O)=C(O)[C@@]2(O)C(=O)C3=C(O)c4c(O)cccc4[C@@](C)(O)[C@H]3C[C@@H]12 [tetracycline],rate of formation of human amylin fibrils (electron microscopy),"[4]; 700 μM tetracycline, 70 μM human amylin, 1.5 hours and 5 hours",appears to slow the rate of formation of human amylin fibrils
same,morphology of human amylin fibrils (electron microscopy),"[4]; 700 μM tetracycline, 70 μM human amylin, 29 hours and 48 hours",short fragmented fibrils
same,morphology of human amylin fibrils (electron microscopy),[4]; [7],short fragmented structures
same,morphology of pre-formed amylin fibrils (electron microscopy),"[4]; human amylin pre-incubated for 20 h, then tetracycline for 48 h",fragments of amylin fibrils interdispersed with smaller fibrils
same,enhancement of thioflavin-T fluorescence by human amylin,"[2]; 700 μM compound, 70 μM human amylin, 10 mM tris pH 7.4, over 72 hours (FIG. 1)","initial but significantly decreased formation of a mylin fibril-associated fluorescence up to 2 h ours, followed by a gradual decrease in fluorescence"
same,enhancement of thioflavin-T fluorescence by human amylin,[2]; [6],"immediate increase in fluorescence occurred, followed by a gradual decrease in fluorescence over the next 24 h"
same,intrinsic cytotoxicity of compound to RINm5F β cells,[5]; relative molar ratios which produced suppression of amyloid aggregation (low μM),cytotoxic
same,reduction in the incorporation of radioactive human amylin into precipitable amylin fibrils,"[3]; 100 μM tetracycline, 10 μM human amylin, 16,000×g",~50%
same,"percentage of precipitable amylin fibrils on centrifugation at 100,000×g","[3]; 100 μM tetracycline, 10 μM human amylin, 100,000×g (FIG. 7B)",unaffected
same,"percentage of precipitable amyloid, after the decrease","[3]; 200 μM tetracycline, 10 μM human amylin, 50 h incubation period",~60%
same,"percentage of precipitable amyloid, before the decrease","[3]; 200 μM tetracycline, 10 μM human amylin, start of the decrease",approximately 85%
Cc1ccc2c(c1)sc(-c1ccc(N(C)C)cc1)[n+]2C.[Cl-] [thioflavin-T],effect on precipitable amyloid formation,[3],no effects on amyloid formation
human amylin,cytotoxicity of amylin peptide to RINm5F cells,[5],significant increase in cell death
rat amylin: synthetic rat amylin from Bachem; non-fibril forming control,cytotoxicity of amylin peptide to RINm5F cells,[5],not cytotoxic
